# Patent US20150166505A1, “PYRIDINYL-SUBSTITUTED PYRAZOLYL CARBOXAMIDES” (GRÜNENTHAL GMBH, priority 2013, published 2015)
# Like-named read-outs stand apart in the source and are kept apart here.
# How the values were obtained:
# [1] = molecular target: T1, CRAC channel (endogenous SOC in HEK293 cells) (Homo sapiens, UniProt Q96D31); experiment: HEK Calcium Influx Assay (FLIPR); type: cell-based
# T1 construct: endogenous in cells; host or cells: HEK293 (ECACC)
# Method: The effect of compounds of the invention on intracellular [Ca^2+] was tested in the HEK293 cell line (ECACC). HEK293 cells were cultured in DMEM/F12/Glutamax (Gibco) containing 10% FCS (Gibco), and maintained at 37° C., 5% CO2. Cell were split twice a week [3*10^6 (Mon-Thu) and 1*10^6 (Thu-Mon) cells/50 ml medium in T-175 ZK culture flasks, respectively]. Twenty four hours pre-experiment, cells were seeded on 96 well plates (Poly-D-Lysine 96well Black/Clear Plate, BD Biocoat REF 356640) at a density of 40,000 cells/well in DMEM/F12 (Gibco) containing 10% FCS (Gibco), and maintained at 37° C., 5% CO2. Prior to store-depletion, cell culture medium was removed and cells were loaded with the a Calcium-sensitive fluorescent dye comprised within the Calcium-4-assay kit (Molecular Devices) in nominally Ca^2+-free HBS buffer (140 mM NaCl, 4 mM KCl, 0.2 mM MgCl2, 11 mM D-glucose, and 10 mM HEPES, pH 7.4) according to manufacturer's instruction for 60 min at 37° C., 5% CO2. Passive depletion of intracellular Ca^2+-stores was then triggered by employing the SERCA inhibitor thapsigargin (2 μM final) for 10 min in the dark (RT). To prevent immediate Ca^2+-entry via the activated Store-operated channels (SOCs), cells were maintained in Ca^2+-free HBS buffer comprising 100 μM EGTA during store-depletion. Intracellular changes in [Ca^2+] were subsequently monitored with the FLIPR device (Molecular Devices). In brief, baseline imaging post-store depletion was allowed for 1 min before adjusting the extracellular buffer to 3 mM CaCl2. Increases in intracellular [Ca^2+] due to pre-activated SOC channels were monitored for 15 min until intracellular Ca^2+ levels had declined into a steady-state. Finally, compounds were administered and Ca^2+ signals were recorded for additional 10 min. Inhibition of endogenous SOC in HEK293 cells was quantified employing the average Ca^2+ signal measured from 9.5-10 min post-administration. Zero percent inhibition (MAX) was defined as the Ca^2+ signal recorded from wells to which DMSO-only had been added instead of compound. Hundred percent inhibition (MIN) was defined as the signal obtained from wells in which cells haven't been treated with TG prior to Ca^2+ addition and to which DMSO-only had been added instead of compound. For routine IC50 determinations of compounds, 8 concentrations of a serial dilution (1:3.16) were tested, starting off from 10 μM. Reliable IC50's could consequently be determined only, if they were at least sub 2.5-3 μM.
# [2] = tested on: Interleukin-2 (IL-2) production/release in Jurkat T cell line; experiment: Jurkat IL-2 Production Assay; type: cell-based; conditions: Homo sapiens; Jurkat T cells, PHA stimulation 22 hours
# Method: Jurkat IL-2 Production Assay
# The effect of compounds of the invention on Interleukin-2 (IL-2) production/release was tested in the Jurkat T cell line (ECACC) clone E6-1. Jurkat T cells were cultured in DMEM/F12/Glutamax (Gibco) containing 10% FCS (Gibco), and maintained at 37° C., 5% CO2. Cell were split twice a week [5*10^6 (Mon-Thu) and 1*10^7 (Thu-Mon) cells/50 ml medium in T-175 ZK culture flasks, respectively]. Prior to experiment, cells were seeded on 96 well plates (Cellstar 96 Well; Cat No. 655180, Greiner bio-one) at a density of 5*10^5 cells/well in DMEM/F12/Glutamax (Gibco) containing 10% FCS (Gibco), and incubated for 60 min at 37° C., 5% CO2. Subsequently, compounds were added and cells were allowed to incubate for 30 min at 37° C., 5% CO2. Cells were then stimulated with 15 μg/ml Phytohemagglutinin (PHA; Sigma) for 22 hours at 37° C., 5% CO2. Before sampling of the supernatants, cells were spun down (200*g/5 min/RT). The amount of IL-2 released into the supernatant was quantified with the human IL-2 AlphaLisa kit (Perkin Elmer) according to manufacturer's instructions. Luminescence proximity measurements were carried out in the Synergy H4 reader (BioTek) employing the fluorescence setting of the reader (ex: 680/30 nm; em: 620/40 nm). Inhibition of IL-production/release in/from Jurkat T cells was quantified as follows: Zero percent inhibition (MAX) was defined as the [IL-2] determined in supernatants derived from cells to which PHA & DMSO-only had been added instead of compound. Hundred percent inhibition (MIN) was defined as the [IL-2] determined in supernatants derived from cells that had been pre-treated with 1 μM CyclosporineA (Sigma) before the addition of 15 μg/ml PHA. For routine IC50 determinations of compounds, 8 concentrations of a serial dilution (1:3.16) were tested, starting off from 10 μM.
# [3] = numeric values of Table 2, read-out: inhib. [@ 10 μM] FLIPR
# [4] = thapsigargin store depletion, read-out: % inhib. [@ 10 μM] FLIPR
# T1 sequence (Q96D31 whole entry): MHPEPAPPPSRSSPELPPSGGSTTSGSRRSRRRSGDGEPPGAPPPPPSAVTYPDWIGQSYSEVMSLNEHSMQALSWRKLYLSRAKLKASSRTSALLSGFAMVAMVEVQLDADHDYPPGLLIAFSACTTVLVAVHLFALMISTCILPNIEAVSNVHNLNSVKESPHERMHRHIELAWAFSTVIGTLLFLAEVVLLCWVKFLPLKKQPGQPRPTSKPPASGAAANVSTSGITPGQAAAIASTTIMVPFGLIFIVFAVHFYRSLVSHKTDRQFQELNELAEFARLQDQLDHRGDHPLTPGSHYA
Compound,"inhibition at 10 µM [1, 3] [%]","inhibition at 10 µM [1, 4] [%]",IC50 [2] [µM]
"CCOc1cc(C)c(-c2cc(C(=O)Nc3c(F)cncc3F)nn2C)cn1 [Example 2, N-(3,5-Difluoro-pyridin-4-yl)-5-(6-ethoxy-4-methyl-pyridin-3-yl)-1-methyl-1H-pyrazole-3-carboxylic acid amide]",95,> 70,0.5 to 1
"CCOc1ccc(-c2cc(C(=O)Nc3c(F)cccc3F)nn2C)c(C)n1 [Example 5, N-(2,6-Difluoro-phenyl)-5-(6-ethoxy-2-methyl-pyridin-3-yl)-1-methyl-1H-pyrazole-3-carboxylic acid amide]",,> 70,1 to 5
"CCc1cc(C)c(-c2cc(C(=O)Nc3c(F)cccc3F)nn2C)cn1 [Example 6, N-(2,6-Difluoro-phenyl)-5-(6-ethyl-4-methyl-pyridin-3-yl)-1-methyl-1H-pyrazole-3-carboxylic acid amide]",67,> 70,1 to 5
"CCc1cc(C)c(-c2cc(C(=O)Nc3c(F)cncc3F)nn2C)cn1 [Example 7, N-(3,5-Difluoro-pyridin-4-yl)-5-(6-ethyl-4-methyl-pyridin-3-yl)-1-methyl-1H-pyrazole-3-carboxylic acid amide]",61,50 to 70,1 to 5
"Cc1cc(C2CC2)ncc1-c1cc(C(=O)Nc2c(F)cccc2F)nn1C [Example 8, 5-(6-Cyclopropyl-4-methyl-pyridin-3-yl)-N-(2,6-difluoro-phenyl)-1-methyl-1H-pyrazole-3-carboxylic acid amide]",81,> 70,1 to 5
"Cc1cc(OC2CC2)ncc1-c1cc(C(=O)Nc2c(F)cncc2F)nn1C [Example 9, 5-(6-Cyclopropyloxy-4-methyl-pyridin-3-yl)-N-(3,5-difluoro-pyridin-4-yl)-1-methyl-1H-pyrazole-3-carboxylic acid amide]",76,> 70,0.5 to 1
"Cc1cc(OC2CC2)ncc1-c1cc(C(=O)Nc2c(F)cccc2F)nn1C [Example 10, 5-(6-Cyclopropyloxy-4-methyl-pyridin-3-yl)-N-(2,6-difluoro-phenyl)-1-methyl-1H-pyrazole-3-carboxylic acid amide]",83,> 70,0.5 to 1
"Cc1cc(OC(F)(F)F)ncc1-c1cc(C(=O)Nc2c(F)cncc2F)nn1C [Example 11, N-(3,5-Difluoro-pyridin-4-yl)-1-methyl-5-[4-methyl-6-(trifluoromethyloxy)-pyridin-3-yl]-1H-pyrazole-3-carboxylic acid amide]",94,> 70,< 0.5
"Cc1cc(OC(F)(F)F)ncc1-c1cc(C(=O)Nc2c(F)cccc2F)nn1C [Example 12, N-(2,6-Difluoro-phenyl)-1-methyl-5-[4-methyl-6-(trifluoromethyloxy)-pyridin-3-yl]-1H-pyrazole-3-carboxylic acid amide]",92,> 70,< 0.5
Cc1cc(OCC2CCC2)ncc1-c1cc(C(=O)Nc2c(F)cccc2F)nn1C [Example 18],,,1 to 5
"Cc1cc(COc2cc(C)c(-c3cc(C(=O)Nc4c(F)cccc4F)nn3C)cn2)no1 [Example 19, N-(2,6-Difluoro-phenyl)-1-methyl-5-[4-methyl-6-[(5-methyl-isoxazol-3-yl)-methoxy]-pyridin-3-yl]-1H-pyrazole-3-carboxylic acid amide]",113,> 70,
"Cc1cc(C#N)ncc1-c1cc(C(=O)Nc2c(F)cccc2F)nn1C [Example 41, 5-(6-Cyano-4-methyl-pyridin-3-yl)-N-(2,6-difluoro-phenyl)-1-methyl-1H-pyrazole-3-carboxylic acid amide]",,< 50,
"COc1cc(C(F)(F)F)ncc1-c1cc(C(=O)Nc2c(F)cccc2F)nn1C [Example 42, N-(2,6-Difluoro-phenyl)-5-[4-methoxy-6-(trifluoromethyl)-pyridin-3-yl]-1-methyl-1H-pyrazole-3-carboxylic acid amide]",,,0.5 to 1
"Cc1cc(OC(C)C)ncc1-c1cc(C(=O)Nc2c(F)cncc2F)nn1C [Example 52, N-(3,5-Difluoro-pyridin-4-yl)-5-(6-isopropoxy-4-methyl-pyridin-3-yl)-1-methyl-1H-pyrazole-3-carboxylic acid amide]",,,0.5 to 1
"COc1cc(C2CC2)ncc1-c1cc(C(=O)Nc2c(F)cncc2F)nn1C [Example 53, 5-(6-Cyclopropyl-4-methoxy-pyridin-3-yl)-N-(3,5-difluoro-pyridin-4-yl)-1-methyl-1H-pyrazole-3-carboxylic acid amide]",,,0.5 to 1
"COc1cc(C)c(-c2cc(C(=O)Nc3c(F)cccc3F)nn2C)cn1 [Example 58, N-(2,6-Difluoro-phenyl)-5-(6-methoxy-4-methyl-pyridin-3-yl)-1-methyl-1H-pyrazole-3-carboxylic acid amide]",,,1 to 5
"COCc1cc(C)c(-c2cc(C(=O)Nc3c(F)cccc3F)nn2C)cn1 [Example 59, N-(2,6-Difluoro-phenyl)-5-[6-(methoxymethyl)-4-methyl-pyridin-3-yl]-1-methyl-1H-pyrazole-3-carboxylic acid amide]",67,50 to 70,
"COc1cc(O)ncc1-c1cc(C(=O)Nc2c(F)cccc2F)nn1C [Example 70, N-(2,6-Difluoro-phenyl)-5-(6-hydroxy-4-methoxy-pyridin-3-yl)-1-methyl-1H-pyrazole-3-carboxylic acid amide]",,< 50,
"CCOc1cc(O)c(-c2cc(C(=O)Nc3c(F)cccc3F)nn2C)cn1 [Example 71, N-(2,6-Difluoro-phenyl)-5-(6-ethoxy-4-hydroxy-pyridin-3-yl)-1-methyl-1H-pyrazole-3-carboxylic acid amide]",,< 50,
"Cn1nc(C(=O)Nc2c(F)cccc2F)cc1-c1nc(C(F)(F)F)ccc1C#N [Example 72, 5-[3-Cyano-6-(trifluoromethyl)-pyridin-2-yl]-N-(2,6-difluoro-phenyl)-1-methyl-1H-pyrazole-3-carboxylic acid amide]",,< 50,
"Cn1nc(C(=O)Nc2c(F)cccc2F)cc1-c1nc(C(C)(C)C)ccc1C#N [Example 73, 5-(6-tert-Butyl-3-cyano-pyridin-2-yl)-N-(2,6-difluoro-phenyl)-1-methyl-1H-pyrazole-3-carboxylic acid amide]",,< 50,
"COc1cc(N(C)C)c(-c2cc(C(=O)Nc3c(F)cccc3F)nn2C)cn1 [Example 75, N-(2,6-Difluoro-phenyl)-5-(4-dimethylamino-6-methoxy-pyridin-3-yl)-1-methyl-1H-pyrazole-3-carboxylic acid amide]",,,1 to 5
